Laboratory results from patent publication US20110166132A1, “Gamma Secretase Modulators” (Amgen Inc., priority 2007, published 2011).
pIC50: −log10 of the molar value.

Target: T1, gamma secretase (Homo sapiens, UniProt P49768)
T1 construct: HEK293 cells stably expressing full length Amyloid Precursor Protein (APP); endogenous in cells; host or cells: HEK 293 cells stably expressing full length APP
Assay: GSM cell-based assay: Aβ 42 inhibition or reduction in HEK 293 cells over-expressing APP (sandwich ELISA)
Details: approximate IC50; HEK293 cells stably expressing full length APP, 24 hours incubation, 10-point dose response starting at 10 μM
Text: GSM cell-based assays were designed to measure the modulation of Aβ 42 from HEK 293 cells over-expressing APP.
Three simultaneous cell-based assays, namely Aβ 42 inhibition or reduction, Aβ 40 inhibition or reduction and a measurement of cell viability of the cells from which the Aβ 42/40 readout was obtained, together gave an interpretation of gamma secretase modulation (GSM). The assays measure Aβ 42 and Ab 40 from conditioned medium of test compound treated HEK 293 cells.
HEK293 cells stably expressing full length Amyloid Precursor Protein (APP) were plated at a density of 100K cells/well in 96 well plates (Costar). The cells were cultivated for 6 hours at 37° C. and 5% CO2 in DMEM supplemented with 10% FBS. The test compounds were then added to cells in 10-point dose response concentrations with the starting concentration being 10 μM. The compounds were diluted from stock solutions in DMSO and the final DMSO concentration of the test compounds on cells was 0.1%. After 24 hours of incubation with the test compounds the supernatant conditioned media was collected and the Aβ 42, Aβ 40 levels were determined using a sandwich ELISA. A cell viability test (CellTiter-Blue Cell Viability assay, Promega) on the cells from which the conditioned medium was harvested for Aβ 42 or Aβ 40 readouts gave an indication of cell survivability as a possible reason for false positive Aβ 42 or 40 reduction or inhibition readout. The IC50 of the compound (for either Aβ 42 or Aβ 40) was calculated from the percent of control or percent inhibition of Aβ 42 or Aβ 40 as a function of the concentration of the test compound.
The sandwich ELISA to detect Aβ 42 or Aβ 40 was performed in 96 well microtiter plates, which were pre-treated with goat anti-rabbit IgG (Pierce). The capture and detecting antibody pair that were used to detect Aβ 42 and Aβ 40 from cell supernatants were rabbit monoclonal Antibody 42 (RabMAb 42) and affinity purified polyclonal Antibody 40 pAB40 (Biosource) as capture antibodies and biotinylated 6E10 (Signet Labs Inc.) as detection antibody. The optimal concentration for RabMAb 42 was 1 μg/ml in Superblock/TBS (Pierce) that was supplemented with 0.05% Tween 20 (Sigma). The optimal concentration for the pAb40 antibody was 3 μg/ml in Superblock/TBS (Pierce) that was supplemented with 0.05% Tween 20 (Sigma). Optimal concentration for the detection antibody 6E10-biotinylated was 0.5 μg/ml in Superblock/TBS (Pierce) that had been supplemented with 2% normal goat serum and 2% normal mouse serum.
Cellular supernatants were incubated with the capture antibody for 16-20 hours at 4° C., followed by 3 wash steps in TBS-tween (0.05%). The detecting antibody incubation was for 3 hours at 4° C., again followed by the wash steps as described previously. The final readout of the ELISA is Time-Resolved Fluorescence (counts per minute) using Delfia reagents Streptavidin-Europium and Enhancement solutions (Perkin Elmer) and the EnVision Multilabel plate reader (Perkin Elmer).

pIC50 | Compound
< 5.00 | COCCNc1cccc(C(CC(C)C)C(=O)Nc2ccc(-c3ccnc(C)c3)cc2)n1 (stereo not shown) [Cpd 182, 2-(6-((2-methoxyethyl)amino)-2-pyridinyl)-4-methyl-N-(4-(2-methyl-4-pyridinyl)-phenyl)pentanamide]
6.59 | Cc1cc(-c2ccc(NC(=O)C(C)c3cccc(-c4ccc(C(=O)N(C)C)cc4)c3)cc2)ccn1 (stereo not shown) [Cpd 157]
< 5.00 | Cc1cc(-c2ccc(NC(=O)C3CCCO3)cc2)ccn1 (stereo not shown) [Cpd 52]
6.07 | Cc1cc(-c2ccc(NC(=O)c3cccc(Oc4ccccc4)c3)cc2)ccn1 [Cpd 31]
6.89 | Cc1cc(-c2ccc(NC(=O)[C@@H](CC(C)C)c3cccc(-c4ccc(N5CCOCC5)cc4)c3)cc2)ccn1 [Cpd 127, (2S)-4-methyl-N-(4-(2-methyl-4-pyridinyl)phenyl)-2-(4′-(4-morpholinyl)-3-biphenylyl)pentanamide]
5.17 | Cc1cc(-c2ccc(NC(=O)c3cccc4c3oc3ccccc34)cc2)ccn1 [Cpd 286]
< 5.00 | COc1cc(C(=O)Nc2ccc(-c3ccnc(C)c3)cc2)ccc1C [Cpd 282]
5.55 | COCCNc1cccc(C(C)C(=O)Nc2ccc(-c3ccnc(C)c3)cc2)c1 (stereo not shown) [Cpd 166]
< 5.00 | Cc1cc(-c2ccc(NC(=O)CC3CCCC3)cc2)ccn1 [Cpd 558, 2-cyclopentyl-N-(4-(2-methyl-4-pyridinyl)-phenyl)acetamide]
5.98 | CSc1cccc(C(C)C(=O)Nc2ccc(-c3ccnc(C)c3)cc2)c1 (stereo not shown) [Cpd 142, N-(4-(2-methyl-4-pyridinyl)phenyl)-2-(3-(methylsulfanyl)phenyl)propanamide]
< 5.00 | Cc1cc(-c2ccc(NC(=O)c3cccc(C(F)(F)F)c3)cc2)ccn1 [Cpd 279]
5.73 | CC[C@H](C(=O)Nc1ccc(-c2ccnc(C)c2)cc1)c1ccccc1 [Cpd 345, (2S)-N-(4-(2-methyl-4-pyridinyl)phenyl)-2-phenylbutanamide]
< 5.00 | Cc1cc(-c2ccc(NC(=O)Cc3cccc(C#N)c3)cc2)ccn1 [Cpd 321, 2-(3-cyanophenyl)-N-(4-(2-methyl-4-pyridinyl)phenyl)acetamide]
5.58 | CCCC(C(=O)Nc1ccc(-c2ccnc(C)c2)cc1)c1ccccc1 (stereo not shown) [Cpd 368, N-(4-(2-methyl-4-pyridinyl)phenyl)-2-phenylpentanamide]
< 5.00 | Cc1cc(-c2ccc(NC(=O)C3CC(=O)N(c4ccc(Cl)cc4)C3)cc2)ccn1 (stereo not shown) [Cpd 308]
6.86 | CC(=O)c1ccc(-c2cccc(C(C)C(=O)Nc3ccc(-c4ccnc(C)c4)cc3)c2)cc1 (stereo not shown) [Cpd 158, 2-(4′-acetyl-3-biphenylyl)-N-(4-(2-methyl-4-pyridinyl)phenyl)propanamide]
5.92 | Cc1cc(-c2ccc(NC(=O)C(C)c3cccc(C4CC4)c3)cc2)ccn1 (stereo not shown) [Cpd 524, 2-(3-cyclopropylphenyl)-N-(4-(2-methyl-4-pyridinyl)phenyl)propanamide]
6.67 | Cc1cc(-c2ccc(NC(=O)C(C)c3cccc(-c4cccc(C#N)c4)c3)cc2)ccn1 (stereo not shown) [Cpd 154, 2-(3′-cyano-3-biphenylyl)-N-(4-(2-methyl-4-pyridinyl)phenyl)propanamide]
< 5.00 | Cc1cc(-c2ccc(NC(=O)C3CC34CCC4)cc2)ccn1 (stereo not shown) [Cpd 186]
6.33 | Cc1cc(-c2ccc(NC(=O)Cc3ccc4c(c3)OCO4)cc2)ccn1 [Cpd 16, 2-(1,3-benzodioxol-5-yl)-N-(4-(2-methyl-4-pyridinyl)phenyl)acetamide]
5.76 | Cc1cccc([C@H](CC(C)C)C(=O)Nc2ccc(-c3ccnc(C)c3)cc2)c1 [Cpd 105, (2S)-4-methyl-2-(3-methylphenyl)-N-(4-(2-methyl-4-pyridinyl)phenyl)pentanamide]
5.41 | Cc1cc(-c2ccc(NC(=O)C3CCc4ccccc43)cc2)ccn1 (stereo not shown) [Cpd 117]
5.82 | COc1cc(C(C)C(=O)Nc2ccc(-c3ccnc(C)c3)cc2)ccc1NC(C)C (stereo not shown) [Cpd 575, 2-(3-methoxy-4-((1-methylethyl)amino)-phenyl)-N-(4-(2-methyl-4-pyridinyl)-phenyl)propanamide]

pIC50 | Compound
< 5.00 | Cc1cc(-c2ccc(NC(=O)C(CCF)c3cccc(Br)c3)cc2)ccn1 (stereo not shown) [Cpd 129, 2-(3-bromophenyl)-4-fluoro-N-(4-(2-methyl-4-pyridinyl)phenyl)butanamide]
6.62 | Cc1cc(-c2ccc(NC(=O)C(CC(C)C)c3ccc(N4CCCCC4)cc3)cc2)ccn1 (stereo not shown) [Cpd 134, 4-methyl-N-(4-(2-methyl-4-pyridinyl)-phenyl)-2-(4-(1-piperidinyl)phenyl)-pentanamide]
6.97 | Cc1cc(-c2ccc(NC(=O)C(C)c3ccc4c(c3)[nH]c3ccc(Cl)cc34)cc2)ccn1 (stereo not shown) [Cpd 65, 2-(6-chloro-9H-carbazol-2-yl)-N-(4-(2-methyl-4-pyridinyl)phenyl)propanamide]
< 5.00 | Cc1cc(-c2ccc(NC(=O)c3cccc(N(C)C)c3)cc2)ccn1 [Cpd 46]
5.74 | Cc1cc(-c2ccc(NC(=O)C(C)c3cc(N4CCOCC4)cc(C(F)(F)F)c3)cc2)ccn1 (stereo not shown) [Cpd 441, N-(4-(2-methyl-4-pyridinyl)phenyl)-2-(3-(4-morpholinyl)-5-(trifluoromethyl)phenyl)-propanamide]
5.62 | Cc1cc(-c2ccc(NC(=O)Cc3ccc(F)c(C(F)(F)F)c3)cc2)ccn1 [Cpd 351, 2-(4-fluoro-3-(trifluoromethyl)phenyl)-N-(4-(2-methyl-4-pyridinyl)phenyl)acetamide]
5.37 | COC1CCCC(C(=O)Nc2ccc(-c3ccnc(C)c3)cc2)C1 (stereo not shown) [Cpd 35]
5.94 | Cc1cc(-c2ccc(NC(=O)C(C)c3cccc(Nc4ccccc4)c3)cc2)ccn1 (stereo not shown) [Cpd 165, N-(4-(2-methyl-4-pyridinyl)phenyl)-2-(3-(phenylamino)phenyl)propanamide]
< 5.00 | Cc1cc(-c2ccc(NC(=O)C3CCN(Cc4ccccc4)CC3)cc2)ccn1 [Cpd 312]
< 5.00 | Cc1cc(-c2ccc(NC(=O)c3cc(Cl)nc(Cl)c3)cc2)ccn1 [Cpd 51]
6.75 | COc1cc(NC(=O)C(C)c2cccc(-c3ccc(N4CCOCC4)cc3)c2)ccc1-c1ccnc(C)c1 (stereo not shown) [Cpd 191]
< 5.00 | Cc1cc(-c2ccc(NC(=O)C3CC3)cc2)ccn1 [Cpd 54]
5.80 | Cc1cc(-c2ccc(NC(=O)c3cc(C4CC4)on3)cc2)ccn1 [Cpd 22]
5.07 | Cc1cc(-c2ccc(NC(=O)C(C)c3cccc(N4CCOCC4)n3)cc2)ccn1 (stereo not shown) [Cpd 141]
5.58 | Cc1cc(-c2ccc(NC(=O)c3cn4c(C)cccc4n3)cc2)ccn1 [Cpd 20]
6.78 | Cc1cc(-c2ccc(NC(=O)C(C)c3cccc(N4CCN(c5ccccn5)CC4)c3)cc2)ccn1 (stereo not shown) [Cpd 139, N-(4-(2-methyl-4-pyridinyl)phenyl)-2-(3-(4-(2-pyridinyl)-1-piperazinyl)phenyl)-propanamide]
< 5.00 | Cc1cc(-c2ccc(NC(=O)Cc3ccccc3OCc3ccccc3)cc2)ccn1 [Cpd 113, 2-(2-(benzyloxy)phenyl)-N-(4-(2-methyl-4-pyridinyl)phenyl)acetamide]
5.75 | Cc1cc(-c2ccc(NC(=O)C3(c4ccccc4F)CC3)cc2)ccn1 [Cpd 288]
< 5.00 | Cc1cc(-c2ccc(NC(=O)c3ccccc3-c3ccccc3)cc2)ccn1 [Cpd 91]
6.81 | Cc1cc(-c2ccc(NC(=O)C(C)c3cccc(-c4ccc(N5CCOCC5)nc4)c3)cc2)ccn1 (stereo not shown) [Cpd 135, N-(4-(2-methyl-4-pyridinyl)phenyl)-2-(3-(6-(4-morpholinyl)-3-pyridinyl)phenyl)-propanamide]
5.63 | Cc1cc(-c2ccc(NC(=O)Cc3ccc(C)s3)cc2)ccn1 [Cpd 38, N-(4-(2-methyl-4-pyridinyl)phenyl)-2-(5-methyl-2-thiophenyl)acetamid]
6.49 | CC(=O)N1CCN(c2ccc(-c3cccc([C@@H](C)C(=O)Nc4ccc(-c5ccnc(C)c5)cc4)c3)cc2)CC1 [Cpd 522]

Compound | pIC50
Cc1cc(-c2ccc(NC(=O)C(C)c3cccc(C4=CCNCC4)c3)cc2)ccn1 (stereo not shown) [Cpd 425, N-(4-(2-methyl-4-pyridinyl)phenyl)-2-(3-(1,2,3,6-tetrahydro-4-pyridinyl)phenyl)-propanamide] | < 5.00
